Source: US20040077599A1, “Novel spiro[2.4]heptane amino carboxy compounds and derivatives thereof” (priority 2000, published 2004)
Where two headings read alike, the source gives them in different places.

Columns and labels:
[1] = tested on: Group II/III metabotropic glutamate receptors (mGluRs); assay: Cyclic AMP assay (forskolin-induced cyclic AMP accumulation in cortical slices); type: cell-based, Sprague Dawley rat; settings: rat cortical slices; for Group II/III Agonist: inhibits forskolin-induced cyclic AMP accumulation; for Group II/III Antagonist: inhibits the glutamate-caused decrease in forskolin-induced cyclic AMP accumulation
Description: The assay of cyclic AMP formation can be performed as described previously (Tovey et al., Clinica Chimica Acta, 56, 221-234, 1974). The assay can be modelled on the cyclic AMP assay kit available from Amersham, which in turn, is based on the assay created by Tovey et al. Briefly, samples are prepared from Sprague Dawley rat (225-250 g) cortical slices. Slices are incubated with the drug, and then challenged with forskolin to induce cyclic AMP release. Following termination of the reaction by boiling, the slices are homogenized and centrifuged. Samples of supernatant are then incubated for 2-3 hours with a known quantity of [^3H]cAMP and a binding protein. When the incubation is complete, the bound cyclic AMP is separated from the free cyclic AMP by centrifugation with charcoal. The resulting supernatant (containing free cyclic AMP) is then analyzed by liquid scintillation counting. The amount of unbound cyclic AMP can be calculated from a standard curve previously determined with various samples of free cyclic AMP.
Group II/III metabotropic glutamate receptors (mGluRs) are negatively coupled to adenylate cyclase, and agonists of these receptors lead to a decrease in intracellular cyclic AMP accumulation.
The assay has been modeled on the cyclic AMP assay kit available from Amersham. This kit, in turn, is based on the assay created by Tovey et al. (1974). Briefly, the samples were prepared from Sprague Dawley rat (225-250 g) cortical slices. Slices were incubated with the test compound (drug), and then challenged with forskolin to induce cyclic AMP release. Following termination of the reaction by boiling, the slices were homogenized and centrifuged. Samples of supernatant were then incubated for 2-3 hours with a known quantity of [^3H]cAMP and a binding protein. When the incubation was complete, the bound cyclic AMP was separated from the free cyclic AMP by centrifugation with charcoal. The resulting supernatant (containing free cyclic AMP) was then analyzed by liquid scintillation counting. The amount of unbound cyclic AMP was calculated from a standard curve previously determined with various samples of free cyclic AMP.
If the drugs tested inhibit forskolin-induced cyclic AMP accumulation, they are considered to be Group II/III agonists. Conversely, if they inhibit the decrease in forskolin-induced cyclic AMP accumulation caused by glutamate, they are considered to be Group II/III antagonists.

[2] = tested on: Group I metabotropic glutamate receptors (mGluRs); assay: Phosphatidylinositol assay (inositol phosphate accumulation in neonatal tissue slices); type: cell-based, Sprague Dawley rat; settings: neonatal rat slices, 45 minutes; for EC50: antagonist mode vs ACPD; for Group I Agonist: increase in intracellular free inositol phosphate accumulation; for Group I Antagonist: inhibits inositol phosphate accumulation induced by ACPD
Description: Phosphatidylinositol (PI) hydrolysis can be measured as described below: Briefly, cross-chopped slices are prepared from neonatal Sprague Dawley rat tissue (age: p7-p14). The slices are pre-labelled with [^3H] myo-inositol. Following pre-labelling, the slices are incubated with the test drugs and standard (known Group I agonists i.e. ACPD) for a period of 45 minutes. The incubation is terminated by the addition of chloroform/methanol/HCl (100:200:2). The resulting mixture is separated into two phases by the addition of chloroform and distilled water. The aqueous fraction is applied to ion exchange columns, and inositol phosphates are eluted using 800 mM Ammonium Formate/100 mM Formic Acid. The eluent is then analyzed using liquid scintillation counting. The amount of inositol phosphate accumulation is expressed as a percentage of that induced by ACPD.
Group I metabotropic glutamate receptors (mGluRs) are positively coupled on inositol phosphate metabolism. Agonists at these receptors lead to an increase in intracellular free inositol phosphates, while antagonists inhibit the increase in intracellular free inositol phosphate induced by standard agonists (i.e. ACPD).
Cross-chopped slices were prepared from neonatal Sprague Dawley rat tissue (age: p7-p14). The slices were pre-labelled with [^3H] myo-inositol. Following pre-labelling, the slices were incubated with the test compounds and standard (known Group I agonists i.e. ACPD) for a period of 45 minutes. The incubation was terminated by the addition of chloroform/methanol/HCl (100:200:2). The resulting mixture was separated into two phases by the addition of chloroform and distilled water. The aqueous fraction was applied to ion exchange columns, and inositol phosphates were eluted using 800 mM Ammonium Formate/100 mM Formic Acid. The eluent was then analyzed using liquid scintillation counting. The amount of inositol phosphate accumulation was expressed as a percentage of that induced by ACPD.
If the drugs cause an increase in intracellular free inositol phosphate accumulation, they are considered to be Group I agonists. […]

[3] = antagonist mode vs glutamate, read-out: EC50 (M), Group II/III Antagonist
[4] = agonist mode, read-out: EC50 (M), Group II/III Agonist

EC50 [1, 3]	Group II/III Agonist [1]	Group II/III Antagonist [1]	EC50 [2]	Group I Agonist [2]	Group I Antagonist [2]	EC50 [1, 4]	SMILES
1e-06 M	No	yes	94 nM	No	Yes	–	N[C@]1(C(=O)O)CCCC12CC2C(=O)O (some centres unmarked) [Compound 8, Spiro[2.4]heptane-4-amino-1,4-dicarboxylic acid]
1.4e-09 M	No	Yes	220 nM	No	Yes	–	N[C@@]1(C(=O)O)CCCC12CC2C(=O)O (some centres unmarked) [Compound 7, Spiro[2.4]heptane-4-amino-1,4-dicarboxylic acid]
–	Yes	Yes	88 nM	No	Yes	1.6e-06 M	NC(C(=O)O)C1CCCC12CC2C(=O)O (centres unmarked) [Compound 26, Spiro[4,2]heptane-1-carboxy-4-glycine]
–	Yes	Yes	0.84 nM	No	Yes	8.7e-11 M	NC(C(=O)O)C1CCCC12CC2C(=O)O (centres unmarked) [Compound 27, Spiro[4,2]heptane-1-carboxy-4-glycine]

SMILES	EC50 [1, 3]	Group II/III Agonist [1]	Group II/III Antagonist [1]	EC50 [2]	Group I Agonist [2]	Group I Antagonist [2]	EC50 [1, 4]
NC1(C(=O)O)CC2(CC2C(=O)O)c2ccccc21 (centres unmarked) [Compound 22, 1-Amino-1-carboxyindan-3-spiro-cyclopropanecarboxylic Acid]	8.7e-10 M	No	No	–	No	No	–
NC1(C(=O)O)CCCC12C(C(=O)O)C2c1ccccc1 (centres unmarked) [Compound 16, Spiro[2.4]heptane4-amino-2-phenyl-1,4-dicarboxylic Acid]	–	Yes	No	100 nM	No	Yes	1e-09 M
